Measured values from ChEMBL document CHEMBL5465560, “Selectivity Literature for EUbOPEN Chemogenomic Library” (2024).

Columns and labels:
[1] = biological target: T1, Serine/threonine-protein kinase ULK1 (Homo sapiens) (UniProt O75385); experiment: Selectivity interaction (KinomeScan (DiscoverX)) EUB0000092b ULK1; details: at 10 µM
T1 sequence (whole entry): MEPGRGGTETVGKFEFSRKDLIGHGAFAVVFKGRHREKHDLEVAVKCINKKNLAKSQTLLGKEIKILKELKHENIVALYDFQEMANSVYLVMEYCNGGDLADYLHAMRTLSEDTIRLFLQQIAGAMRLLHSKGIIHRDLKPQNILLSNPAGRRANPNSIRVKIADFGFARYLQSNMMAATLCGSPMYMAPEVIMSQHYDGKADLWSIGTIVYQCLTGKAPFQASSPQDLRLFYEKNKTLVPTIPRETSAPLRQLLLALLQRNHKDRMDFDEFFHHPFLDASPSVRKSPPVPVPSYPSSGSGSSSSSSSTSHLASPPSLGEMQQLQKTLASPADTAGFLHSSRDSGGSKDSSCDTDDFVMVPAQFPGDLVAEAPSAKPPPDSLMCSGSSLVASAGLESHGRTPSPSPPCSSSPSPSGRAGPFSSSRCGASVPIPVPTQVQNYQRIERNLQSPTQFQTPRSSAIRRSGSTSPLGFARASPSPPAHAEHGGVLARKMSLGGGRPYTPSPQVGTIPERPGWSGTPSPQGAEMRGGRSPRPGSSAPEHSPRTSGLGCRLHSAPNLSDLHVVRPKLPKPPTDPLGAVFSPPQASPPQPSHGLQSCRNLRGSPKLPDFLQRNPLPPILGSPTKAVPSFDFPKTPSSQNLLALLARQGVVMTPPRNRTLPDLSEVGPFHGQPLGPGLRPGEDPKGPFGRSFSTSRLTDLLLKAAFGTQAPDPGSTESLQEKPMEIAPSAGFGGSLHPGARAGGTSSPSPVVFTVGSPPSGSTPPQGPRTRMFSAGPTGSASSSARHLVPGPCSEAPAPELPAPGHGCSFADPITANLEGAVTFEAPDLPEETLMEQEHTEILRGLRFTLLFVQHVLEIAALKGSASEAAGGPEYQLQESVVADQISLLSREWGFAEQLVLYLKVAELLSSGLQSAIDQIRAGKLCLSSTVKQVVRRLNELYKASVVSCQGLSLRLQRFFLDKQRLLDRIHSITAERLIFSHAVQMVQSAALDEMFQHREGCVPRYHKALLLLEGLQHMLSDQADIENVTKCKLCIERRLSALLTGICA

[2] = biological target: T2, Tyrosine-protein kinase JAK3 (Homo sapiens) (UniProt P52333); experiment: Selectivity interaction (KinomeScan (DiscoverX)) EUB0000655a JAK3; details: at 10 µM
T2 sequence (whole entry): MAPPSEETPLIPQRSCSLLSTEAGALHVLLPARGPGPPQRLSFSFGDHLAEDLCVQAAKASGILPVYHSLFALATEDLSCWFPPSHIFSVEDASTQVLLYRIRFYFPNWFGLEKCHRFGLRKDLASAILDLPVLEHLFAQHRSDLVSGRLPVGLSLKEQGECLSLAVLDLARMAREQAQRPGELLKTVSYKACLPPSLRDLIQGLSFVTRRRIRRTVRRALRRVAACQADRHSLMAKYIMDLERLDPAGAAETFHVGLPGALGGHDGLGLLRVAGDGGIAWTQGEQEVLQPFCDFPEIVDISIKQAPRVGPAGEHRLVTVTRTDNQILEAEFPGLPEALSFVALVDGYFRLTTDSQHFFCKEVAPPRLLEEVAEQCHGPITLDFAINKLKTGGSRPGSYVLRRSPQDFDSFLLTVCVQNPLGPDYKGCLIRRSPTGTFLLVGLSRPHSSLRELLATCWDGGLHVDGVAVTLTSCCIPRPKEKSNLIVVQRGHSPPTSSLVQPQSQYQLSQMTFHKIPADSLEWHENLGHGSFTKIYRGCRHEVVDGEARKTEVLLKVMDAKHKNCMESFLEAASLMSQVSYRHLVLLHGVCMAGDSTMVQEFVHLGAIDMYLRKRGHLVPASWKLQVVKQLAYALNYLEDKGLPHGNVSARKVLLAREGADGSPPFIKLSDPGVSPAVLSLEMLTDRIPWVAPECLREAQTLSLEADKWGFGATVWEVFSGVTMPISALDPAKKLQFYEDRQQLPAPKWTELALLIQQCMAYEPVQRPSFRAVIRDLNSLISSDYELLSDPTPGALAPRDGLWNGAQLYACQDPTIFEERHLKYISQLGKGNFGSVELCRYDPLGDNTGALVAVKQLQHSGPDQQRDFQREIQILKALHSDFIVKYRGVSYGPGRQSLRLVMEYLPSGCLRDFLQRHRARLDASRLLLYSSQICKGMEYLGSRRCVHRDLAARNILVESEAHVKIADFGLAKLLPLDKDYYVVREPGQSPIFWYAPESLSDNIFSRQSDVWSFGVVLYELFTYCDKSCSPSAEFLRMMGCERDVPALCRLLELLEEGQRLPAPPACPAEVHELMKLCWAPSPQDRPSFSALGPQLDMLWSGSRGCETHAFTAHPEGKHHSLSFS

Compound `CCC(=O)N1CCN(c2ccc(-n3c(=O)ccc4cnc5ccc(-c6cnc7ccccc7c6)cc5c43)cc2C(F)(F)F)CC1` has a % of control [1] of 100%.

In the case of `CN(C)CCOc1ccc(-c2nc(-c3ccncc3)c(-c3ccc4c(c3)CC/C4=N\O)[nH]2)cc1`, the % of control [2] is reported as 93%.
